Read-outs that look alike come from different tables or passages of the source.
How the values were obtained:
Type in all cases: biochemical
KRAS Q61H = KRAS Q61H (Homo sapiens, UniProt P01116+P62937, Q61H); assay: Disruption of BRAF RBD interaction with Ras (FRET / MOA assay, with Cyclophilin A); details: KRAS Q61H; read-out: KRAS Q61H FRET data IC50
From the text: Disruption of B-Raf Ras-Binding Domain (BRAF^RBD) Interaction with K-Ras by Compounds of the Invention (Also Called a FRET Assay or an MOA Assay)
Note—The following protocol describes a procedure for monitoring disruption of K-Ras G12C (GMP-PNP) binding to BRAF^RBD by a compound of the invention. This protocol may also be executed substituting other Ras proteins or nucleotides.
The purpose of this biochemical assay was to measure the ability of test compounds to facilitate ternary complex formation between a nucleotide-loaded K-Ras isoform and Cyclophilin A; the resulting ternary complex disrupts binding to a BRAF^RBD construct, inhibiting K-Ras signaling through a RAF effector. Data is reported as IC50 values.
In assay buffer containing 25 mM HEPES pH 7.3, 0.002% Tween20, 0.1% BSA, 100 mM NaCl and 5 mM MgCl2, tagless Cyclophilin A, His6-K-Ras-GMPPNP, and GST-BRAF^RBD were combined in a 384-well assay plate at final concentrations of 25 μM, 12.5 nM and 50 nM, respectively. Compound was present in plate wells as a 10-point 3-fold dilution series starting at a final concentration of 30 μM. After incubation at 25° C. for 3 hours, a mixture of Anti-His Eu-W1024 and anti-GST allophycocyanin was then added to assay sample wells at final concentrations of 10 nM and 50 nM, respectively, and the reaction incubated for an additional 1.5 hours. […] Compounds that facilitate disruption of a K-Ras:RAF complex were identified as those eliciting a decrease in the TR-FRET ratio relative to DMSO control wells.
The purpose of this biochemical assay was to measure the ability of test compounds to facilitate ternary complex formation between a nucleotide-loaded K-Ras isoform and Cyclophilin A; the resulting ternary complex disrupts binding to a BRAF^RBDD construct, inhibiting K-Ras signaling through a RAF effector. Data is reported as IC50 values.

KRAS G12C = KRAS G12C (Homo sapiens, UniProt P01116+P62937, G12C); assay: Ras-Raf disruption / FRET / MOA assay (BRAF RBD); details: with Cyclophilin A
Sequence of KRAS G12C (P01116 1-169 isoform P01116-2 G12C limits assumed): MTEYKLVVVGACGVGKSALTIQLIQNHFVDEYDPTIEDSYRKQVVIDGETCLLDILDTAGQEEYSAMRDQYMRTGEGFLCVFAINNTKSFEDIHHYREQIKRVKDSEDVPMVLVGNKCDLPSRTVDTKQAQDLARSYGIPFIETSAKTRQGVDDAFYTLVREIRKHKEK
Sequence of KRAS G12C (P62937 whole entry): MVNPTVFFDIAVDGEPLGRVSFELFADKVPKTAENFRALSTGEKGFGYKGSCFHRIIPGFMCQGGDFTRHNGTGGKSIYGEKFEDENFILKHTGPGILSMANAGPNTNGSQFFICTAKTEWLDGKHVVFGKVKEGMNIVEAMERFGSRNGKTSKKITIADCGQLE
Method in brief: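 His6-K-Ras G12C-GMPPNP (12.5 nM), GST-BRAF RBD (50 nM) and tagless Cyclophilin A (25 μM) incubated 3 h at 25 °C with compound (10-point 3-fold series from 30 μM), pH 7.3 HEPES buffer. Anti-His Eu/anti-GST APC added for 1.5 h; decreased TR-FRET ratio vs DMSO gives IC50.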

KRAS G12V = KRAS G12V (Homo sapiens, UniProt P01116+P62937, G12V); assay: Ras-Raf disruption / FRET / MOA assay (BRAF RBD); details: with Cyclophilin A
Sequence of KRAS G12V (P01116 1-169 isoform P01116-2 G12V limits assumed): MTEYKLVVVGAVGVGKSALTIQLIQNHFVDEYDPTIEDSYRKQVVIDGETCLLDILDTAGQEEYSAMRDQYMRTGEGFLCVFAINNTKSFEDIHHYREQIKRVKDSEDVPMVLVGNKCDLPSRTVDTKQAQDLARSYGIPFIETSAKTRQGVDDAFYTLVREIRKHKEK
Sequence of KRAS G12V (P62937 whole entry): as the sequence (P62937 whole entry) above
Method in brief: (§1)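 TR-FRET in 25 mM HEPES pH 7.3, 100 mM NaCl, 5 mM MgCl2, 0.1% BSA, 0.002% Tween20 with 25 μM Cyclophilin A, 12.5 nM His6-Ras-GMPPNP, 50 nM GST-BRAF RBD; compound 10-point 3-fold series from 30 μM. After 3 h at 25 °C, Eu anti-His/APC anti-GST added for 1.5 h; IC50 from ratio decrease versus DMSO.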

KRAS G12D = KRAS G12D (Homo sapiens, UniProt P01116+P62937, G12D); assay: Ras-Raf disruption / FRET / MOA assay (BRAF RBD); details: with Cyclophilin A
Sequence of KRAS G12D (P01116 1-169 isoform P01116-2 G12D limits assumed): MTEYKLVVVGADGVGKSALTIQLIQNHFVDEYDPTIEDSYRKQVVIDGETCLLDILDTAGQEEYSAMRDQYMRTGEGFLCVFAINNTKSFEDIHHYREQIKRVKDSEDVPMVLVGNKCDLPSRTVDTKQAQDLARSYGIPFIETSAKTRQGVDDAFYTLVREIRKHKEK
Sequence of KRAS G12D (P62937 whole entry): as the sequence (P62937 whole entry) above
Method in brief: as §1

KRAS WT = KRAS WT (Homo sapiens, UniProt P01116+P62937); assay: Ras-Raf disruption / FRET / MOA assay (BRAF RBD); details: with Cyclophilin A
Sequence of KRAS WT (P01116 1-169 isoform P01116-2 limits assumed): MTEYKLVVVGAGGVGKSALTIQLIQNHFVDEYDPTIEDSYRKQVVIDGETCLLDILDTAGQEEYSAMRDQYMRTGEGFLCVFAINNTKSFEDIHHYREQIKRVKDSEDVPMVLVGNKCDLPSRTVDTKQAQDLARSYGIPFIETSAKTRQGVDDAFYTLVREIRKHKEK
Sequence of KRAS WT (P62937 whole entry): as the sequence (P62937 whole entry) above
Method in brief: as §1

KRAS G13C = KRAS G13C (Homo sapiens, UniProt P01116+P62937, G13C); assay: Ras-Raf disruption / FRET / MOA assay (BRAF RBD); details: with Cyclophilin A
Sequence of KRAS G13C (P01116 1-169 isoform P01116-2 G13C limits assumed): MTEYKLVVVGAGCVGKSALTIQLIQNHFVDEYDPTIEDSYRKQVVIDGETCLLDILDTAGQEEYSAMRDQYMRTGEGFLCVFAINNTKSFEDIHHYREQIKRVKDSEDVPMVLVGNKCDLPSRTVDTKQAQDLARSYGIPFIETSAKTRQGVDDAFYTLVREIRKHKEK
Sequence of KRAS G13C (P62937 whole entry): as the sequence (P62937 whole entry) above
Method in brief: as §1

NRAS G12C = NRAS G12C (Homo sapiens, UniProt P01111+P62937, G12C); assay: Ras-Raf disruption / FRET / MOA assay (BRAF RBD)
Sequence of NRAS G12C (P01111 whole entry G12C): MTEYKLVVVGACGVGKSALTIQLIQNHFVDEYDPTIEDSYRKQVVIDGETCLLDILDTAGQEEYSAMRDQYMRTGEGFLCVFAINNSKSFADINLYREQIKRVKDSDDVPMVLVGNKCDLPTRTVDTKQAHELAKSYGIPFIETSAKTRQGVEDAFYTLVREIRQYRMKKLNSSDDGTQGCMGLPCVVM
Sequence of NRAS G12C (P62937 whole entry): as the sequence (P62937 whole entry) above
Method in brief: as §1

KRAS G12S = KRAS G12S (Homo sapiens, UniProt P01116+P62937, G12S); assay: Ras-Raf disruption / FRET / MOA assay (BRAF RBD); details: with Cyclophilin A
Sequence of KRAS G12S (P01116 1-169 isoform P01116-2 G12S limits assumed): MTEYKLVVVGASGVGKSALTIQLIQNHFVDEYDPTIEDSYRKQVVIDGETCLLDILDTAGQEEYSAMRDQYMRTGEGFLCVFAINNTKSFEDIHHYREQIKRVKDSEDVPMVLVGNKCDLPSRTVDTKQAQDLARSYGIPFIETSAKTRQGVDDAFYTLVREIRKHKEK
Sequence of KRAS G12S (P62937 whole entry): as the sequence (P62937 whole entry) above
Method in brief: as §1

KRAS G13D = KRAS G13D (Homo sapiens, UniProt P01116+P62937, G13D); assay: Ras-Raf disruption / FRET / MOA assay (BRAF RBD); details: with Cyclophilin A
Sequence of KRAS G13D (P01116 1-169 isoform P01116-2 G13D limits assumed): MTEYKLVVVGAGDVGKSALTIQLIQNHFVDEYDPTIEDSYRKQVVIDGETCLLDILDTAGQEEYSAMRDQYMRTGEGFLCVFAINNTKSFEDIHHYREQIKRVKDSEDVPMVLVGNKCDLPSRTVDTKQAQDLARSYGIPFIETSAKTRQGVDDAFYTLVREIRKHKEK
Sequence of KRAS G13D (P62937 whole entry): as the sequence (P62937 whole entry) above
Method in brief: as §1

[1] = Ras-Raf disruption, read-out: KRAS G12C FRET data IC50
[2] = Ras-Raf disruption, read-out: KRAS G12V FRET data IC50
[3] = Ras-Raf disruption, read-out: KRAS G12D FRET data IC50
[4] = Ras-Raf disruption, read-out: KRAS WT FRET data IC50
[5] = Ras-Raf disruption, read-out: KRAS G13C FRET data IC50
[6] = NRAS G12C, read-out: NRAS G12C FRET data IC50
[7] = Ras-Raf disruption, read-out: KRAS G12S FRET data IC50
[8] = Ras-Raf disruption, read-out: KRAS G13D FRET data IC50

Sequence of KRAS Q61H (P01116 1-169 isoform P01116-2 Q61H limits assumed): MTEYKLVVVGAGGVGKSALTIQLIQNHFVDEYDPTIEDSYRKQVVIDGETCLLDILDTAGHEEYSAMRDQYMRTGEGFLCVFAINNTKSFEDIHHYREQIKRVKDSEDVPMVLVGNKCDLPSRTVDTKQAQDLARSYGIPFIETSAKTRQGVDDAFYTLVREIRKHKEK
Sequence of KRAS Q61H (P62937 whole entry, the tested form may be a part): as the sequence (P62937 whole entry) above

SMILES	IC50 (KRAS Q61H)	IC50 (KRAS G12C; [1])	IC50 (KRAS G12V; [2])	IC50 (KRAS G12D; [3])	IC50 (KRAS WT; [4])	IC50 (KRAS G13C; [5])	IC50 (NRAS G12C; [6])	IC50 (KRAS G12S; [7])	IC50 (KRAS G13D; [8])	IC50 (KRAS G12C; KRAS G12C FRET data IC50, Ras-Raf disruption)	IC50 (KRAS G12V; KRAS G12V FRET data IC50, Ras-Raf disruption)	IC50 (KRAS G12D; KRAS G12D FRET data IC50, Ras-Raf disruption)	IC50 (KRAS WT; KRAS WT FRET data IC50, Ras-Raf disruption)	IC50 (KRAS G13C; KRAS G13C FRET data IC50, Ras-Raf disruption)	IC50 (NRAS G12C; NRAS G12C FRET data IC50, NRAS G12C)	IC50 (KRAS G12S; KRAS G12S FRET data IC50, Ras-Raf disruption)	IC50 (KRAS G13D; KRAS G13D FRET data IC50, Ras-Raf disruption)
CCn1c(-c2cccnc2[C@H](C)OC)c2c3cc(ccc31)-c1cc(O)cc(c1)C[C@H](NC(=O)[C@H](C(C)C)N(C)C(=O)[C@@H]1OCC[C@@H]1c1ccccc1)C(=O)N1CCC[C@H](N1)C(=O)OCC(C)(C)C2 [Example A415]	< 10 nM	–	–	–	–	–	–	–	–	–	–	–	–	–	–	–	–
CCn1c(-c2cccnc2[C@H](C)OC)c2c3nc(ccc31)-c1csc(n1)C[C@H](NC(=O)[C@H](C(C)C)N(C)C(=O)N1CC(OC)C1)C(=O)N1CCC[C@H](N1)C(=O)OCC(C)(C)C2 (atropisomer, axis not shown) [Example A613]	1000 to 10000 nM	–	–	–	–	–	–	–	–	–	–	–	–	–	–	–	–
CCn1c(-c2cccnc2[C@H](C)OC)c2c3cc(ccc31)-c1cc(O)cc(c1)C[C@H](NC(=O)[C@H](C(C)C)N(C)C(=O)[C@@H]1CCN(C(=O)[C@@H]3CN3)C1)C(=O)N1CCC[C@H](N1)C(=O)OCC(C)(C)C2 [Example 172]	–	10 to 100 nM	10 to 100 nM	100 to 1000 nM	10 to 100 nM	10 to 100 nM	10 to 100 nM	10 to 100 nM	10 to 100 nM	–	–	–	–	–	–	–	–
CCn1c(-c2cccnc2[C@H](C)OC)c2c3cc(ccc31)-c1cc(O)cc(c1)C[C@H](NC(=O)[C@H](C(C)C)N(C)C(=O)[C@H]1CCN(S(=O)(=O)[C@H]3CN3C)C1)C(=O)N1CCC[C@H](N1)C(=O)OCC(C)(C)C2 (single isomer, unassigned) [Example 57]	–	100 to 1000 nM	100 to 1000 nM	1000 to 10000 nM	100 to 1000 nM	10 to 100 nM	100 to 1000 nM	100 to 1000 nM	100 to 1000 nM	–	–	–	–	–	–	–	–
CCn1c(-c2cccnc2[C@H](C)OC)c2c3cc(ccc31)-c1cc(O)cc(c1)C[C@H](NC(=O)[C@H](C(C)C)N(C)C(=O)c1ccc(NC(=O)[C@H]3CN3)cn1)C(=O)N1CCC[C@H](N1)C(=O)OCC(C)(C)C2 [Example 127]	–	100 to 1000 nM	100 to 1000 nM	100 to 1000 nM	100 to 1000 nM	10 to 100 nM	100 to 1000 nM	10 to 100 nM	100 to 1000 nM	–	–	–	–	–	–	–	–
CCn1c(-c2cccnc2[C@H](C)OC)c2c3cc(ccc31)-c1cc(O)cc(c1)C[C@H](NC(=O)[C@H](C(C)C)N(C)C(=O)C1CCN(C(=O)[C@@H]3CN3)CC1)C(=O)N1CCC[C@H](N1)C(=O)OCC(C)(C)C2 [Example 89]	–	10 to 100 nM	100 to 1000 nM	100 to 1000 nM	10 to 100 nM	< 10 nM	10 to 100 nM	10 to 100 nM	10 to 100 nM	–	–	–	–	–	–	–	–
CCn1c(-c2cccnc2[C@H](C)OC)c2c3cc(ccc31)-c1cc(O)cc(c1)C[C@H](NC(=O)[C@H](C(C)C)N(C)C(=O)CC1CN(C(=O)[C@@H]3CN3)C1)C(=O)N1CCC[C@H](N1)C(=O)OCC(C)(C)C2 [Example 178]	–	10 to 100 nM	100 to 1000 nM	100 to 1000 nM	100 to 1000 nM	10 to 100 nM	10 to 100 nM	100 to 1000 nM	100 to 1000 nM	–	–	–	–	–	–	–	–
CCn1c(-c2cccnc2[C@H](C)OC)c2c3cc(ccc31)-c1cc(O)cc(c1)C[C@H](NC(=O)[C@H](C(C)C)N(C)C(=O)[C@H]1CCN1C(=O)[C@H]1CN1)C(=O)N1CCC[C@H](N1)C(=O)OCC(C)(C)C2 [Example 158]	–	–	–	–	–	–	–	–	–	10 to 100 nM	10 to 100 nM	100 to 1000 nM	10 to 100 nM	10 to 100 nM	10 to 100 nM	10 to 100 nM	10 to 100 nM
CCn1c(-c2cccnc2[C@H](C)OC)c2c3cc(ccc31)-c1cc(O)cc(c1)C[C@H](NC(=O)[C@H](C(C)C)N(C)C(=O)[C@]1(F)CCN(C(=O)[C@@H]3CN3)C1)C(=O)N1CCC[C@H](N1)C(=O)OCC(C)(C)C2 (atropisomer, axis not shown) [Example 184]	–	< 10 nM	100 to 1000 nM	100 to 1000 nM	100 to 1000 nM	10 to 100 nM	< 10 nM	100 to 1000 nM	100 to 1000 nM	–	–	–	–	–	–	–	–
CCn1c(-c2cccnc2[C@H](C)OC)c2c3cc(ccc31)-c1cccc(c1)C[C@H](NC(=O)[C@H](C(C)C)N(C)C(=O)[C@H]1CC[C@H](N=C=NC(C)(C)C)C1)C(=O)N1CCC[C@H](N1)C(=O)OCC(C)(C)C2 [Example 125]	–	10 to 100 nM	> 10000 nM	1000 to 10000 nM	> 10000 nM	100 to 1000 nM	10 to 100 nM	> 10000 nM	> 10000 nM	–	–	–	–	–	–	–	–
CCn1c(-c2cccnc2[C@H](C)OC)c2c3cc(ccc31)-c1cc(O)cc(c1)C[C@H](NC(=O)[C@H](C(C)C)N(C)C(=O)C1CN(S(=O)(=O)[C@@H]3CN3C)C1)C(=O)N1CCC[C@H](N1)C(=O)OCC(C)(C)C2 (single isomer, unassigned) [Example 118]	–	100 to 1000 nM	100 to 1000 nM	1000 to 10000 nM	100 to 1000 nM	10 to 100 nM	100 to 1000 nM	100 to 1000 nM	100 to 1000 nM	–	–	–	–	–	–	–	–
CCn1c(-c2cccnc2[C@H](C)OC)c2c3cc(ccc31)-c1cc(O)cc(c1)C[C@H](NC(=O)[C@H](C(C)C)N(C)C(=O)[C@H]1C[C@H](NC(=O)[C@H]3CN3)C1)C(=O)N1CCC[C@H](N1)C(=O)OCC(C)(C)C2 [Example 182]	–	10 to 100 nM	10 to 100 nM	100 to 1000 nM	10 to 100 nM	< 10 nM	10 to 100 nM	10 to 100 nM	10 to 100 nM	–	–	–	–	–	–	–	–

From patent US20230233569A1 (Revolution Medicines, Inc., priority 2020, published 2023)
